Like-named read-outs stand apart in the source and are kept apart here.
Key:
[1] = system: Farage (non-Hodgkin's B cell lymphoma) cells; test: Anti-proliferation assay (ATPLite, 72 h), Farage; type: cell-based; conditions: x dexamethasone
[2] = system: GA-10 (Burkitt's lymphoma) cells; test: Anti-proliferation assay (ATPLite, 72 h), GA-10; type: cell-based; conditions: x dexamethasone
[3] = system: MM.1S cells; test: Anti-proliferation assay (ATPLite, 72 h), MM.1S; conditions: for IC50: read-out: IC50 (no IL-6); for activity and synergy in antiproliferation assays: RPMI-8226, H929, MM.1S and MM.1R MM cell lines; for percent inhibition of cell proliferation: DEX 0 nM; for percent inhibition of cell proliferation / synergy score: MM.1S; for synergy score: in combination with CGS-21680
[4] = system: RPMI-8226 cells; test: Anti-proliferation assay (ATPLite, 72 h), RPMI-8226; type: cell-based; conditions: combination with dexamethasone; Loewe-based Synergy Score; 72 h
[5] = system: H929 cells; test: Anti-proliferation assay (ATPLite, 72 h), H929; type: cell-based; conditions: combination with dexamethasone; Loewe-based Synergy Score; 72 h
[6] = system: MM.1S cells
[7] = system: mantle cell lymphoma cell line Mino; test: Anti-proliferation assay (ATPLite, 72 h), Mino; type: cell-based, human
Method: (§1) All of the cell lines were cultured in RPMI-1640 media supplemented with 10% FBS except OCI Ly10 cells (IMDM media supplemented with 20% human serum). The ANBL-6 cell line culture media also contained 10 ng/ml IL-6. MM.1S, MM.1R, SU-DHL6, Karpas 422, and OCI ly10 cells were provided by the Dana Farber Cancer Institute. ANBL-6 cells were provided by Bob Orlowsli (M.D. Anderson Cancer Research Center). H929, RPMI-8226, GA-10, Farage, Mino, JVM-13, Pfeiffer, Toledo, and Kusami-1 cells were from ATCC (Cat #'s CCL-155, CRL-9068, CRL-2392 CRL-2630, CRL-3000, CRL-3003, CRL-2632, CRL-2631, and CRL-2724 respectively). MOLP-8, OPM2, EJM, and KSM-12-PE cells were from DSMZ.
(§2) Compounds were prepared in DMSO at 1000× the highest desired concentration. Master plates were generated consisting of serially diluted compounds in 2- or 3-fold dilutions in 384-well format. For single agent dose response curves, the master plates consisted of 9 individual compounds at 12 concentrations in 2- or 3-fold dilutions. For combination matrices, master plates consisted of individual compounds at 6 or 9 concentrations at 2- or 3-fold dilutions.
(§3) The average untreated well value (avg. untreated wells) is the arithmetic mean of 40 wells from the same assay plate treated with vehicle alone. Negative inhibition values result from local variations in treated wells as compared to untreated wells.
(§4) The uncertainty of each fitted parameter was estimated from the range over which the change in reduced chi-squared was less than one, or less than minimum reduced chi-squared if that minimum exceeded one, to allow for underestimated σI errors.
(§5) Single agent curve data were used to define a dilution series for each compound to, be used for combination screening in a 6×6 matrix format. […] For compounds with no detectable single agent activity, a dilution factor of 4 was used, starting from the highest achievable concentration.
(§6) The Loewe additivity model was used to quantify combination effects. Combinations were ranked initially by Additivity Excess Volume, which is defined as ADD Volume=ΣCX, CY(Idata−ILoewe). where ILoewe(CX,CY) is the inhibition that satisfies (CX/ECX)+(CY/ECY)=1, and ECX,Y are the effective concentrations at ILoewe for the single agent curves. A “Synergy Score” was also used, where the Synergy Score S=log fX log fY ΣIdata (Idata−ILoewe), summed over all non-single-agent concentration pairs, and where log fX,Y is the natural logarithm of the dilution factors used for each single agent.

[8] = system: mantle cell lymphoma cell line JVM-13; test: Anti-proliferation assay (ATPLite, 72 h), JVM-13; type: cell-based, human
Method: as §1, §2, §3, §4, §5, §6

[9] = system: OPM2 cells; test: Anti-proliferation assay (ATPLite, 72 h), OPM2; type: cell-based, human; conditions: for synergy score: in combination with CGS-21680, OPM-8
[10] = system: MOLP-8 cells; test: Anti-proliferation assay (ATPLite, 72 h), MOLP-8; type: cell-based; conditions: in combination with CGS-21680
[11] = system: EJM cells; test: Anti-proliferation assay (ATPLite, 72 h), EJM; type: cell-based; conditions: in combination with CGS-21680
[12] = system: ANBL-6 cells; test: Anti-proliferation assay (ATPLite, 72 h), ANBL-6; type: cell-based; conditions: in combination with CGS-21680
[13] = system: KSM-12-PE cells; test: Anti-proliferation assay (ATPLite, 72 h), KSM-12-PE; type: cell-based; conditions: in combination with CGS-21680; KSM-12-PE
[14] = Homo sapiens, MM1.S, read-out: percent inhibition of cell proliferation

Work on `NCCNC(=O)Cc1ccc(NC(=O)Cc2ccc(Nc3ncnc4c3ncn4[C@@H]3O[C@H](CO)[C@@H](O)[C@H]3O)cc2)cc1` [ADAC, N-(4-(2-((4-(2-((2-aminoethyl)amino)-2-oxoethyl)phenyl)amino)-2-oxoethyl)phenyl)-Adenosine] yielded a synergy score [1] of 2.28, a synergy score [2] of 2.43 and an IC50 ([3]; Homo sapiens, MM1.S) of 623 nM. It also gave an inhibition at 1.17 µM [3, 14] of 80%, an inhibition at 3.51 µM [3, 14] of 75% and an inhibition at 10.5 µM [3, 14] of 82%. For the same molecule, the inhibition at 31.6 µM [3, 14] was 82% and the “activity and synergy in antiproliferation assays” value (“activity and synergy” for short) [3] was “active and synergistic”.
`CNC(=O)[C@H]1O[C@@H](n2cnc3c(NCc4cccc(I)c4)nc(Cl)nc32)[C@H](O)[C@@H]1O` [Chloro-IB-MECA, 2-chloro-N^6-(3-iodobenzyl)-5′-N-methylcarboxamidoadenosine] was tested, and the “Synergy score with dexamethasone, RPMI-8226” value [4] was 5.61, the “Synergy score with dexamethasone, H929” value [5] was 5.29 and the synergy score [1] was 3.17. For the same molecule, the “percent inhibition of cell proliferation” value ([3]; Cl-IB-MECA 0.352 nM, 72 h) was 16%, the “percent inhibition of cell proliferation” value ([3]; Cl-IB-MECA 1.06 nM, 72 h) was 5.9% and the “percent inhibition of cell proliferation” value ([3]; Cl-IB-MECA 3.16 nM, 72 h) was 6.3%. For the same molecule, the “percent inhibition of cell proliferation” value ([3]; Cl-IB-MECA 9.49 nM, 72 h) was 9.1%, the “percent inhibition of cell proliferation” value ([3]; Cl-IB-MECA 28.5 nM, 72 h) was −0.6% and the “percent inhibition of cell proliferation” value ([3]; Cl-IB-MECA 85.4 nM, 72 h) was 6.3%. The “percent inhibition of cell proliferation” value ([3]; Cl-IB-MECA 256 nM, 72 h) was 27%, the “percent inhibition of cell proliferation” value ([3]; Cl-IB-MECA 769 nM, 72 h) was 71% and the IC50 ([3]; Homo sapiens, MM1.S) was 838 nM. The “activity and synergy” value [3] was “active and synergistic”, the “Synergy score with dexamethasone, MM.1S” value ([3]; combination with dexamethasone, Loewe-based Synergy Score, 72 h) was 8.37 and the “Percent inhibition of cell growth by Chloro-IB-MECA” value (“Percent inhibition of cell growth” for short) ([6]; Cl-IB-MECA 0.19 μM, 78 nM SCH58261) was 5.2%. For the same molecule, the “Percent inhibition of cell growth” value ([6]; Cl-IB-MECA 0.19 μM, 87 nM MRS1523) was 19%, the “Percent inhibition of cell growth” value ([6]; Cl-IB-MECA 0.19 μM, 89 nM DPCPX) was 7.4% and the “Percent inhibition of cell growth” value ([6]; Cl-IB-MECA 0.19 μM, 89 nM MRS1754) was 25%. The “Percent inhibition of cell growth” value ([6]; Cl-IB-MECA 0.19 μM, 150 nM SCH58261) was −3.8%, the “Percent inhibition of cell growth” value ([6]; Cl-IB-MECA 0.19 μM, 170 nM MRS1523) was 26% and the “Percent inhibition of cell growth” value ([6]; Cl-IB-MECA 0.19 μM, 174 nM DPCPX) was 12%. For the same molecule, the “Percent inhibition of cell growth” value ([6]; Cl-IB-MECA 0.19 μM, 175 nM MRS1754) was 21%, the “Percent inhibition of cell growth” value ([6]; Cl-IB-MECA 0.19 μM, no antagonist) was 20% and the “Percent inhibition of cell growth” value ([6]; Cl-IB-MECA 1.5 μM, 78 nM SCH58261) was 8.1%. The “Percent inhibition of cell growth” value ([6]; Cl-IB-MECA 1.5 μM, 87 nM MRS1523) was 54%, the “Percent inhibition of cell growth” value ([6]; Cl-IB-MECA 1.5 μM, 89 nM DPCPX) was 47% and the “Percent inhibition of cell growth” value ([6]; Cl-IB-MECA 1.5 μM, 89 nM MRS1754) was 50%. The “Percent inhibition of cell growth” value ([6]; Cl-IB-MECA 1.5 μM, 150 nM SCH58261) was 4.3%, the “Percent inhibition of cell growth” value ([6]; Cl-IB-MECA 1.5 μM, 170 nM MRS1523) was 61% and the “Percent inhibition of cell growth” value ([6]; Cl-IB-MECA 1.5 μM, 174 nM DPCPX) was 46%. The “Percent inhibition of cell growth” value ([6]; Cl-IB-MECA 1.5 μM, 175 nM MRS1754) was 45%, the “Percent inhibition of cell growth” value ([6]; Cl-IB-MECA 1.5 μM, no antagonist) was 61% and the “Percent inhibition of cell growth” value ([6]; Cl-IB-MECA 3.1 μM, 78 nM SCH58261) was 28%. For the same molecule, the “Percent inhibition of cell growth” value ([6]; Cl-IB-MECA 3.1 μM, 87 nM MRS1523) was 69%, the “Percent inhibition of cell growth” value ([6]; Cl-IB-MECA 3.1 μM, 89 nM DPCPX) was 64% and the “Percent inhibition of cell growth” value ([6]; Cl-IB-MECA 3.1 μM, 89 nM MRS1754) was 71%. For the same molecule, the “Percent inhibition of cell growth” value ([6]; Cl-IB-MECA 3.1 μM, 150 nM SCH58261) was 16%, the “Percent inhibition of cell growth” value ([6]; Cl-IB-MECA 3.1 μM, 170 nM MRS1523) was 74% and the “Percent inhibition of cell growth” value ([6]; Cl-IB-MECA 3.1 μM, 174 nM DPCPX) was 60%. The “Percent inhibition of cell growth” value ([6]; Cl-IB-MECA 3.1 μM, 175 nM MRS1754) was 72% and the “Percent inhibition of cell growth” value ([6]; Cl-IB-MECA 3.1 μM, no antagonist) was 70%.
For `COC1=C2C[C@@H](C)C[C@H](OC)[C@H](O)[C@@H](C)/C=C(\C)[C@H](OC(N)=O)[C@@H](OC)/C=C\C=C(/C)C(=O)NC(=CC1=O)C2=O` [Geldanomycin], the “percent inhibition of cell proliferation” value ([7]; Geldanomycin 0.0064 μM alone) was 4.7%, the “percent inhibition of cell proliferation” value ([7]; Geldanomycin 0.019 μM alone) was 4.3% and the “percent inhibition of cell proliferation” value ([7]; Geldanomycin 0.057 μM alone) was 6.7%. For the same molecule, the “percent inhibition of cell proliferation” value ([7]; Geldanomycin 0.17 μM alone) was 14%, the “percent inhibition of cell proliferation” value ([7]; Geldanomycin 0.52 μM alone) was 27% and the “percent inhibition of cell proliferation” value ([8]; Geldanomycin 0.0064 μM alone) was −5.8%. For the same molecule, the “percent inhibition of cell proliferation” value ([8]; Geldanomycin 0.019 μM alone) was −7.8%, the “percent inhibition of cell proliferation” value ([8]; Geldanomycin 0.057 μM alone) was 7.6% and the “percent inhibition of cell proliferation” value ([8]; Geldanomycin 0.17 μM alone) was 12%. The “percent inhibition of cell proliferation” value ([8]; Geldanomycin 0.52 μM alone) was 19%.
For `CNC(=O)[C@H]1O[C@@H](n2cnc3c(NCc4cccc(I)c4)ncnc32)[C@H](O)[C@@H]1O` [IB-MECA, N^6-(3-iodobenzyl)-5′-N-methylcarboxamidoadenosine], the synergy score [1] was 2.91, the synergy score [2] was 2.23 and the “activity and synergy” value [3] was “active and synergistic”.
With `CC(/C=C/C(=O)NO)=C\[C@@H](C)C(=O)c1ccc(N(C)C)cc1` [Trichostatin A] the “percent inhibition of cell proliferation” value ([9]; Trichostatin A 0.0063 μM alone) was 13%, the “percent inhibition of cell proliferation” value ([9]; Trichostatin A 0.025 μM alone) was 48% and the “percent inhibition of cell proliferation” value ([9]; Trichostatin A 0.05 μM alone) was 76%. The “percent inhibition of cell proliferation” value ([9]; Trichostatin A 0.1 μM alone) was 99%, the “percent inhibition of cell proliferation” value ([7]; Trichostatin A 0.0063 μM alone) was 24% and the “percent inhibition of cell proliferation” value ([7]; Trichostatin A 0.025 μM alone) was 78%. For the same molecule, the “percent inhibition of cell proliferation” value ([7]; Trichostatin A 0.05 μM alone) was 100% and the “percent inhibition of cell proliferation” value ([7]; Trichostatin A 0.1 μM alone) was 100%.
`COc1cccc2c1C(=O)c1c(O)c3c(c(O)c1C2=O)C[C@@](O)(C(=O)CO)C[C@@H]3O[C@H]1C[C@H](N)[C@H](O)[C@H](C)O1` [doxorubicin] was tested, and the synergy score [10] was 1.16, the synergy score [9] was 0.46 and the synergy score [11] was 1.21. For the same molecule, the synergy score [12] was 2.54, the synergy score [13] was 0.81 and the synergy score [3] was 1.65.
`Nc1cccc2c1CN(C1CCC(=O)NC1=O)C2=O` (stereo not shown) [lenalidomide] was tested, and the synergy score [10] was 1.65, the synergy score [9] was 1.36 and the synergy score [11] was 0.32. For the same molecule, the synergy score [12] was 1.45, the synergy score [13] was 0.83 and the synergy score [3] was 4.87.

Reference: patent publication US20090053168A1, “TREATMENTS OF B-CELL PROLIFERATIVE DISORDERS” (priority 2007, published 2009)
